Results: the supplement of paper PMC11061612

Assays:
Experiment in all cases: combination Emax (second highest fraction inhibited in the dose matrix, 72 h); higher = more inhibition; extreme values may be limits of the assay
[1] = test system: 42-MG-BA (Glioblastoma)
Method in brief: (§1)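 Cell lines grown in DMEM/F12 or RPMI with 10% FBS were plated in 1536-well plates and held 24 hours at 37°C, 5% CO2 before 72 hours of exposure to two-drug dose matrices, with DMSO typically at 0.2%. CellTiter-Glo 2.0 luminescence gave viability, which was converted to inhibition. Vehicle wells were set to 0 and blank wells to 1. Combination Emax is the second-highest inhibition in the matrix, and Bliss excess is the observed combination effect minus the expected EA + EB − EA·EB, where EA and EB are the single-agent effects.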

[2] = test system: AGS (Gastric Carcinoma)
Method in brief: as §1

[3] = test system: B-CPAP (Thyroid Gland Carcinoma)
Method in brief: as §1

[4] = test system: CCRF-CEM (T-Lymphoblastic Leukemia)
Method in brief: as §1

[5] = test system: COLO-205 (Colorectal Carcinoma)
Method in brief: as §1

[6] = test system: CaR-1 (Colorectal Carcinoma)
Method in brief: as §1

[7] = test system: DEL (T-Cell Non-Hodgkin's Lymphoma)
Method in brief: as §1

[8] = test system: EC-GI-10 (Esophageal Squamous Cell Carcinoma)
Method in brief: as §1

[9] = test system: ES4 (Ewing's Sarcoma)
Method in brief: as §1

[10] = test system: HO-1-N-1 (Oral Cavity Carcinoma)
Method in brief: as §1

[11] = test system: HuP-T4 (Pancreatic Carcinoma)
Method in brief: as §1

[12] = test system: LU-135 (Small Cell Lung Carcinoma)
Method in brief: as §1

[13] = test system: NB10 (Neuroblastoma)
Method in brief: as §1

[14] = test system: NCI-H2085 (Non-Small Cell Lung Carcinoma)
Method in brief: as §1

[15] = test system: NCI-H82 (Small Cell Lung Carcinoma)
Method in brief: as §1

[16] = test system: OVCA420 (Ovarian Carcinoma)
Method in brief: as §1

[17] = test system: TCCSUP (Bladder Carcinoma)
Method in brief: as §1

[18] = test system: TE-15 (Esophageal Squamous Cell Carcinoma)
Method in brief: as §1

[19] = test system: UM-UC-3 (Bladder Carcinoma)
Method in brief: as §1

CN(C)CCCOc1ccc(-c2ccc3ncc4c(c3c2)n(C2CCOCC2)c(=O)n4C)cn1 [AZD0156] + C=CCn1c(=O)c2cnc(Nc3ccc(N4CCN(C)CC4)cc3)nc2n1-c1cccc(C(C)(C)O)n1 [AZD1775] (first compound max 1 µM, partner max 1 µM)
combination Emax [1]: 0.29
combination Emax [2]: 0.478
combination Emax [3]: 0.357
combination Emax [4]: 1
combination Emax [5]: 0.341
combination Emax [6]: 0.128
combination Emax [7]: 1
combination Emax [8]: 0.849
combination Emax [9]: 0.438
combination Emax [10]: 0.348
combination Emax [11]: 0.217
combination Emax [12]: 0.644
combination Emax [13]: 0.586
combination Emax [14]: 0.6
combination Emax [15]: 0.901
combination Emax [16]: 0.141
combination Emax [17]: 0.356
combination Emax [18]: 0.454
combination Emax [19]: 0.264

CN(C)CCCOc1ccc(-c2ccc3ncc4c(c3c2)n(C2CCOCC2)c(=O)n4C)cn1 [AZD0156] + CCN(CCO)CCCOc1ccc2c(Nc3cc(CC(=O)Nc4cccc(F)c4)[nH]n3)ncnc2c1 [AZD2811] (first compound max 1 µM, 7x7, partner max 1 µM)
combination Emax [1]: 0.444
combination Emax [2]: 0.238
combination Emax [3]: 0.189
combination Emax [4]: 0.983
combination Emax [5]: 0.854
combination Emax [6]: 0.145
combination Emax [7]: 0.684
combination Emax [8]: 0.471
combination Emax [9]: 0.159
combination Emax [10]: 0.74
combination Emax [11]: 0.244
combination Emax [12]: 0.925
combination Emax [13]: 0.315
combination Emax [14]: 0.547
combination Emax [15]: 0.45
combination Emax [16]: 0.0163
combination Emax [17]: 0.111
combination Emax [18]: 0.0454
combination Emax [19]: 0.155

CN(C)CCCOc1ccc(-c2ccc3ncc4c(c3c2)n(C2CCOCC2)c(=O)n4C)cn1 [AZD0156] + C[C@@H]1COCCN1C2=NC(=NC(=C2)C3(CC3)[S@](=N)(=O)C)C4=C5C=CNC5=NC=C4 [AZD6738] (first compound max 1 µM, 7x7, partner max 10 µM)
combination Emax [1]: 0.701
combination Emax [2]: 0.706
combination Emax [3]: 0.479
combination Emax [4]: 0.99
combination Emax [5]: 0.247
combination Emax [6]: 0.435
combination Emax [7]: 0.988
combination Emax [8]: 0.724
combination Emax [9]: 0.844
combination Emax [10]: 0.809
combination Emax [11]: 0.46
combination Emax [12]: 0.599
combination Emax [13]: 0.87
combination Emax [14]: 0.824
combination Emax [15]: 0.948
combination Emax [16]: 0.545
combination Emax [17]: 0.591
combination Emax [18]: 0.734
combination Emax [19]: 0.475

C=CCn1c(=O)c2cnc(Nc3ccc(N4CCN(C)CC4)cc3)nc2n1-c1cccc(C(C)(C)O)n1 [AZD1775] + C[C@@H]1COCCN1C2=NC(=NC(=C2)C3(CC3)[S@](=N)(=O)C)C4=C5C=CNC5=NC=C4 [AZD6738] (first compound max 1 µM, partner max 10 µM)
combination Emax [1]: 0.763
combination Emax [2]: 0.848
combination Emax [3]: 0.811
combination Emax [4]: 1
combination Emax [5]: 0.863
combination Emax [6]: 0.525
combination Emax [7]: 1
combination Emax [8]: 0.943
combination Emax [9]: 0.826
combination Emax [10]: 0.883
combination Emax [11]: 0.521
combination Emax [12]: 0.751
combination Emax [13]: 0.879
combination Emax [14]: 0.912
combination Emax [15]: 0.979
combination Emax [16]: 0.518
combination Emax [17]: 0.755
combination Emax [18]: 0.761
combination Emax [19]: 0.682

C=CCn1c(=O)c2cnc(Nc3ccc(N4CCN(C)CC4)cc3)nc2n1-c1cccc(C(C)(C)O)n1 [AZD1775] + O=C(c1cc(Cc2n[nH]c(=O)c3ccccc23)ccc1F)N1CCN(C(=O)C2CC2)CC1 [Olaparib] (first compound max 1 µM, partner max 10 µM)
combination Emax [1]: 0.278
combination Emax [2]: 0.547
combination Emax [3]: 0.456
combination Emax [4]: 1
combination Emax [5]: 0.336
combination Emax [6]: 0.257
combination Emax [7]: 0.999
combination Emax [8]: 0.831
combination Emax [9]: 0.563
combination Emax [10]: 0.437
combination Emax [11]: 0.251
combination Emax [12]: 0.642
combination Emax [13]: 0.682
combination Emax [14]: 0.566
combination Emax [15]: 0.851
combination Emax [16]: 0.881
combination Emax [17]: 0.461
combination Emax [18]: 0.382
combination Emax [19]: 0.326

CCN(CCO)CCCOc1ccc2c(Nc3cc(CC(=O)Nc4cccc(F)c4)[nH]n3)ncnc2c1 [AZD2811] + C=CCn1c(=O)c2cnc(Nc3ccc(N4CCN(C)CC4)cc3)nc2n1-c1cccc(C(C)(C)O)n1 [AZD1775] (first compound max 1 µM, partner max 1 µM)
combination Emax [1]: 0.522
combination Emax [2]: 0.6
combination Emax [3]: 0.334
combination Emax [4]: 1
combination Emax [5]: 0.854
combination Emax [6]: 0.223
combination Emax [7]: 1
combination Emax [8]: 0.849
combination Emax [9]: 0.377
combination Emax [10]: 0.848
combination Emax [11]: 0.27
combination Emax [12]: 0.921
combination Emax [13]: 0.466
combination Emax [14]: 0.688
combination Emax [15]: 0.901
combination Emax [16]: 0.179
combination Emax [17]: 0.352
combination Emax [18]: 0.496
combination Emax [19]: 0.258

CCc1c2c(nc3ccc(O)cc13)-c1cc3c(c(=O)n1C2)COC(=O)[C@]3(O)CC [SN-38] + O=C(c1cc(Cc2n[nH]c(=O)c3ccccc23)ccc1F)N1CCN(C(=O)C2CC2)CC1 [Olaparib] (first compound max 0.3 µM, 7x7, partner max 10 µM)
combination Emax [1]: 1
combination Emax [2]: 0.884
combination Emax [3]: 0.946
combination Emax [4]: 1
combination Emax [5]: 0.618
combination Emax [6]: 0.912
combination Emax [7]: 1
combination Emax [9]: 0.767
combination Emax [10]: 1
combination Emax [11]: 0.948
combination Emax [12]: 0.843
combination Emax [13]: 0.866
combination Emax [14]: 0.132
combination Emax [15]: 0.787
combination Emax [17]: 0.665
combination Emax [18]: 0.811
combination Emax [19]: 0.985
